Results taken from paper PMC5392334, “Discovery and characterization of a novel irreversible EGFR mutants selective and potent kinase inhibitor CHMFL-EGFR-26 with a distinct binding mode” (Oncotarget, 2017).

What was measured:
S6K1 = target: T1, S6K1 (Homo sapiens, UniProt P23443); assay: KinomeScan; assay type: binding; conditions: read-out: % control
T1 construct: purchased DiscoveRx KINOMEscan

MYO3A = target: T2, MYO3A (Homo sapiens, UniProt Q8NEV4); assay: KinomeScan; assay type: binding; conditions: read-out: % control
T2 construct: purchased DiscoveRx KINOMEscan

MEK4 = target: T3, MEK4 (Homo sapiens, UniProt P45985); assay: KinomeScan; assay type: binding; conditions: read-out: % control
T3 construct: purchased DiscoveRx KINOMEscan

FGFR1 = target: T4, FGFR1 (Homo sapiens, UniProt P11362); assay: KinomeScan; assay type: binding; conditions: read-out: % control
T4 construct: purchased DiscoveRx KINOMEscan
T4 sequence (P11362 22-822): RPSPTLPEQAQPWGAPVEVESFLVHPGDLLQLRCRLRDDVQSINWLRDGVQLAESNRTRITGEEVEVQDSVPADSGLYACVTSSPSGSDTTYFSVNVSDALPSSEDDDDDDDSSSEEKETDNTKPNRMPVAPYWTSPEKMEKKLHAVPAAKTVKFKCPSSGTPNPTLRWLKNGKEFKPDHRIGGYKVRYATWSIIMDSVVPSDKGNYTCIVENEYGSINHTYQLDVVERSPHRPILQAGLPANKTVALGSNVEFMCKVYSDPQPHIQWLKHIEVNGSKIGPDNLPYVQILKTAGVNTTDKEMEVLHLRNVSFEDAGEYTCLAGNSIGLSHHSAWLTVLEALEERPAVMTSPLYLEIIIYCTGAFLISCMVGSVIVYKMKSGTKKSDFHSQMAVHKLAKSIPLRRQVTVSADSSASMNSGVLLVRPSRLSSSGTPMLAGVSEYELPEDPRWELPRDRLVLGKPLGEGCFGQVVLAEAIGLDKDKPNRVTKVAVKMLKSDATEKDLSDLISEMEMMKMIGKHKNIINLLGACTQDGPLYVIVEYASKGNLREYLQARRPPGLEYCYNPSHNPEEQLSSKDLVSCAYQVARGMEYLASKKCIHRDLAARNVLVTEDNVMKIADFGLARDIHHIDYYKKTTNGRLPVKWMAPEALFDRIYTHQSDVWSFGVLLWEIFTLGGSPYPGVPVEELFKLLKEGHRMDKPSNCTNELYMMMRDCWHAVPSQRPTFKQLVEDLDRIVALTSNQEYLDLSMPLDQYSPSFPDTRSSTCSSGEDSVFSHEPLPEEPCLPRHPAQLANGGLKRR

TLK2 = target: T5, TLK2 (Homo sapiens, UniProt Q86UE8); assay: KinomeScan; assay type: binding; conditions: read-out: % control
T5 construct: purchased DiscoveRx KINOMEscan

FLT3(ITD,D835V) = assay: KinomeScan; assay type: binding; conditions: 1μM
ERK1 = target: T6, ERK1 (Homo sapiens, UniProt P27361); assay: KinomeScan; assay type: binding; conditions: read-out: % control
T6 construct: purchased DiscoveRx KINOMEscan
T6 sequence (P27361 whole entry): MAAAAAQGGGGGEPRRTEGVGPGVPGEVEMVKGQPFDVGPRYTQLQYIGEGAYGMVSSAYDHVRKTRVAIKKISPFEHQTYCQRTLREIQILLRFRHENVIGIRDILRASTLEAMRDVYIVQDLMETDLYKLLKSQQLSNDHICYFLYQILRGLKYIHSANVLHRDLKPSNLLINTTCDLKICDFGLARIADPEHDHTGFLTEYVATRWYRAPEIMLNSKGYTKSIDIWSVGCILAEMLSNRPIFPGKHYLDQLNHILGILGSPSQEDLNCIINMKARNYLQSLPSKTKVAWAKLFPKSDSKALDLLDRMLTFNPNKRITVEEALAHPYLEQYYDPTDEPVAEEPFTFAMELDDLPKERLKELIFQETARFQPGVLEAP

BaF3-FL-EGFR-del19-T790M = assay: Anti-proliferation, BaF3 isogenic cell lines (CellTiter-Glo); assay type: cell-based; conditions: Mus musculus, 72 hours, triplet testing
[1] = test system: phosphorylation of STAT3 in HCC827 cells; assay: Signaling pathway examination (immunoblotting); assay type: cell-based; conditions: Homo sapiens, 4 hours
Excerpt: We next examined the effects of CHMFL-EGFR-26 on EGFR mediated signaling pathways in NSCLC cell lines with different EGFR mutants. […] As expected, in the EGFR wt expressing NCSCL cell lines A549 and H1355, only autophosphorylation of EGFR was affected and none of the downstream mediators was inhibited.
Cells were then collected and lysed. Phospho-EGF Receptor, Phospho-EGF Receptor (Tyr1068), Stat3, Phospho-Stat3 (Tyr705), AKT, Phospho-AKT (Ser473), Phospho-AKT (Thr308), p44/42 MAPK (Erk1/2), Phospho-p44/42 MAPK (Erk1/2) (Thr202/ Tyr204), p70 S6 Kinase, Phospho-p70 S6 Kinase (Thr389), eIF4E, Phospho-eIF4E (Ser209), 4E-BP1, Phospho-4E-BP1 (Thr37/46) antibody (Cell Signaling Technology) were used for immunoblotting.

SIK2 = target: T7, SIK2 (Homo sapiens, UniProt Q9H0K1); assay: KinomeScan; assay type: binding; conditions: read-out: % control
T7 construct: purchased DiscoveRx KINOMEscan

CDC2L5 = target: T8, CDC2L5 (Homo sapiens, UniProt Q14004); assay: KinomeScan; assay type: binding; conditions: read-out: % control
T8 construct: purchased DiscoveRx KINOMEscan

IRAK1 = target: T9, IRAK1 (Homo sapiens, UniProt P51617); assay: KinomeScan; assay type: binding; conditions: read-out: % control
T9 construct: purchased DiscoveRx KINOMEscan

MYO3B = target: T10, MYO3B (Homo sapiens, UniProt Q8WXR4); assay: KinomeScan; assay type: binding; conditions: read-out: % control
T10 construct: purchased DiscoveRx KINOMEscan

PLK4 = target: T11, PLK4 (Homo sapiens, UniProt O00444); assay: KinomeScan; assay type: binding; conditions: read-out: % control
T11 construct: purchased DiscoveRx KINOMEscan

JNK2 = target: T12, JNK2 (Homo sapiens, UniProt P45984); assay: KinomeScan; assay type: binding; conditions: read-out: % control
T12 construct: purchased DiscoveRx KINOMEscan

EPHB1 = target: T13, EPHB1 (Homo sapiens, UniProt P54762); assay: KinomeScan; assay type: binding; conditions: read-out: % control
T13 construct: purchased DiscoveRx KINOMEscan

NLK = target: T14, NLK (Homo sapiens, UniProt Q9UBE8); assay: KinomeScan; assay type: binding; conditions: read-out: % control
T14 construct: purchased DiscoveRx KINOMEscan

PAK6 = target: T15, PAK6 (Homo sapiens, UniProt Q9NQU5); assay: KinomeScan; assay type: binding; conditions: read-out: % control
T15 construct: purchased DiscoveRx KINOMEscan

TRPM6 = target: T16, TRPM6 (Homo sapiens, UniProt Q9BX84); assay: KinomeScan; assay type: binding; conditions: read-out: % control
T16 construct: purchased DiscoveRx KINOMEscan

HIPK4 = target: T17, HIPK4 (Homo sapiens, UniProt Q8NE63); assay: KinomeScan; assay type: binding; conditions: read-out: % control
T17 construct: purchased DiscoveRx KINOMEscan

[2] = target: T18, ABL1(Q252H)-nonphosphorylated (Homo sapiens, UniProt P00519, Q252H); assay: KinomeScan; assay type: binding; conditions: read-out: % control
T18 construct: purchased DiscoveRx KINOMEscan

PRKCH = target: T19, PRKCH (Homo sapiens, UniProt P24723); assay: KinomeScan; assay type: binding; conditions: read-out: % control
T19 construct: purchased DiscoveRx KINOMEscan

ALK = target: T20, ALK (Homo sapiens, UniProt Q9UM73); assay: KinomeScan; assay type: binding; conditions: read-out: % control
T20 construct: purchased DiscoveRx KINOMEscan

CDK3 = target: T21, CDK3 (Homo sapiens, UniProt Q00526); assay: KinomeScan; assay type: binding; conditions: read-out: % control
T21 construct: purchased DiscoveRx KINOMEscan

LATS1 = target: T22, LATS1 (Homo sapiens, UniProt O95835); assay: KinomeScan; assay type: binding; conditions: read-out: % control
T22 construct: purchased DiscoveRx KINOMEscan

MAP4K2 = target: T23, MAP4K2 (Homo sapiens, UniProt Q12851); assay: KinomeScan; assay type: binding; conditions: read-out: % control
T23 construct: purchased DiscoveRx KINOMEscan

DDR1 = target: T24, DDR1 (Homo sapiens, UniProt Q08345); assay: KinomeScan; assay type: binding; conditions: read-out: % control
T24 construct: purchased DiscoveRx KINOMEscan

EGFR(E746-A750del) = target: T25, EGFR(E746-A750del) (Homo sapiens, UniProt P00533, DEL746-750); assay: KinomeScan; assay type: binding; conditions: read-out: % control
T25 construct: purchased DiscoveRx KINOMEscan

GAK = target: T26, GAK (Homo sapiens, UniProt O14976); assay: KinomeScan; assay type: binding; conditions: read-out: % control
T26 construct: purchased DiscoveRx KINOMEscan
T26 sequence (O14976 whole entry): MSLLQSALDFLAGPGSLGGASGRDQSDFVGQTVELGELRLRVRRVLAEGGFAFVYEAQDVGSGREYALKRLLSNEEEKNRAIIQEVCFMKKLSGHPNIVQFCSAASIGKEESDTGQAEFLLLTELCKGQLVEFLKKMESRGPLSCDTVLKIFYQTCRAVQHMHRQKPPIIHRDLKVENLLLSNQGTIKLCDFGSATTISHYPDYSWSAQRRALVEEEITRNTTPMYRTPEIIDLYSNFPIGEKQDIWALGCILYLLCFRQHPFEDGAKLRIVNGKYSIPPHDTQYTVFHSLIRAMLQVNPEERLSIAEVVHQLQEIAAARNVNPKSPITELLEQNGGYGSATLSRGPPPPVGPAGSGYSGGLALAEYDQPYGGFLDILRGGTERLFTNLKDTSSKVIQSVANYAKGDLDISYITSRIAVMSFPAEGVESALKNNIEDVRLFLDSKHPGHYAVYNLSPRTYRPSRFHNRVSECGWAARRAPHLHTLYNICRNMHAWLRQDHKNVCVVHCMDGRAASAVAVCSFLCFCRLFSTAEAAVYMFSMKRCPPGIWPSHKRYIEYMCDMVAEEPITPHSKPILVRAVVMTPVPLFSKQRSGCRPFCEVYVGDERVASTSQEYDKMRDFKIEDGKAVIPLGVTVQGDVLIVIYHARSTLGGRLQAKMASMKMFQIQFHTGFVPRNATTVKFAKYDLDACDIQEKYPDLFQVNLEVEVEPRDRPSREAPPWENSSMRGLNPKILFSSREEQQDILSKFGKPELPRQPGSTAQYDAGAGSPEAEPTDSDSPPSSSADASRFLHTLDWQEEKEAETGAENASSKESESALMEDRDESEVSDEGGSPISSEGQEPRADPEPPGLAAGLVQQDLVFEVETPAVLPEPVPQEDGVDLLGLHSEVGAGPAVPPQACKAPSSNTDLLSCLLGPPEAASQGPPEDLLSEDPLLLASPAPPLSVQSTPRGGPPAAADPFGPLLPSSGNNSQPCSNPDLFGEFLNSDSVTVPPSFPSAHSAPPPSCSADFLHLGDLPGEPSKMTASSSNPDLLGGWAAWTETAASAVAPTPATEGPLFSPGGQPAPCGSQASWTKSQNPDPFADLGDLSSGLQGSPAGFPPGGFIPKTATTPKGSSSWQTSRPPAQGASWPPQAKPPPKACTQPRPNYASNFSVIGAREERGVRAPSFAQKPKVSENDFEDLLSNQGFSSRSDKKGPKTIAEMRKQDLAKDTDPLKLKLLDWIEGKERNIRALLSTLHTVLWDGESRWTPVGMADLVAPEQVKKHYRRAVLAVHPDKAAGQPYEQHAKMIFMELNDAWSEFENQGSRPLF

PIM3 = target: T27, PIM3 (Homo sapiens, UniProt Q86V86); assay: KinomeScan; assay type: binding; conditions: read-out: % control
T27 construct: purchased DiscoveRx KINOMEscan

WNK2 = target: T28, WNK2 (Homo sapiens, UniProt Q9Y3S1); assay: KinomeScan; assay type: binding; conditions: read-out: % control
T28 construct: purchased DiscoveRx KINOMEscan
T28 sequence (Q9Y3S1 whole entry): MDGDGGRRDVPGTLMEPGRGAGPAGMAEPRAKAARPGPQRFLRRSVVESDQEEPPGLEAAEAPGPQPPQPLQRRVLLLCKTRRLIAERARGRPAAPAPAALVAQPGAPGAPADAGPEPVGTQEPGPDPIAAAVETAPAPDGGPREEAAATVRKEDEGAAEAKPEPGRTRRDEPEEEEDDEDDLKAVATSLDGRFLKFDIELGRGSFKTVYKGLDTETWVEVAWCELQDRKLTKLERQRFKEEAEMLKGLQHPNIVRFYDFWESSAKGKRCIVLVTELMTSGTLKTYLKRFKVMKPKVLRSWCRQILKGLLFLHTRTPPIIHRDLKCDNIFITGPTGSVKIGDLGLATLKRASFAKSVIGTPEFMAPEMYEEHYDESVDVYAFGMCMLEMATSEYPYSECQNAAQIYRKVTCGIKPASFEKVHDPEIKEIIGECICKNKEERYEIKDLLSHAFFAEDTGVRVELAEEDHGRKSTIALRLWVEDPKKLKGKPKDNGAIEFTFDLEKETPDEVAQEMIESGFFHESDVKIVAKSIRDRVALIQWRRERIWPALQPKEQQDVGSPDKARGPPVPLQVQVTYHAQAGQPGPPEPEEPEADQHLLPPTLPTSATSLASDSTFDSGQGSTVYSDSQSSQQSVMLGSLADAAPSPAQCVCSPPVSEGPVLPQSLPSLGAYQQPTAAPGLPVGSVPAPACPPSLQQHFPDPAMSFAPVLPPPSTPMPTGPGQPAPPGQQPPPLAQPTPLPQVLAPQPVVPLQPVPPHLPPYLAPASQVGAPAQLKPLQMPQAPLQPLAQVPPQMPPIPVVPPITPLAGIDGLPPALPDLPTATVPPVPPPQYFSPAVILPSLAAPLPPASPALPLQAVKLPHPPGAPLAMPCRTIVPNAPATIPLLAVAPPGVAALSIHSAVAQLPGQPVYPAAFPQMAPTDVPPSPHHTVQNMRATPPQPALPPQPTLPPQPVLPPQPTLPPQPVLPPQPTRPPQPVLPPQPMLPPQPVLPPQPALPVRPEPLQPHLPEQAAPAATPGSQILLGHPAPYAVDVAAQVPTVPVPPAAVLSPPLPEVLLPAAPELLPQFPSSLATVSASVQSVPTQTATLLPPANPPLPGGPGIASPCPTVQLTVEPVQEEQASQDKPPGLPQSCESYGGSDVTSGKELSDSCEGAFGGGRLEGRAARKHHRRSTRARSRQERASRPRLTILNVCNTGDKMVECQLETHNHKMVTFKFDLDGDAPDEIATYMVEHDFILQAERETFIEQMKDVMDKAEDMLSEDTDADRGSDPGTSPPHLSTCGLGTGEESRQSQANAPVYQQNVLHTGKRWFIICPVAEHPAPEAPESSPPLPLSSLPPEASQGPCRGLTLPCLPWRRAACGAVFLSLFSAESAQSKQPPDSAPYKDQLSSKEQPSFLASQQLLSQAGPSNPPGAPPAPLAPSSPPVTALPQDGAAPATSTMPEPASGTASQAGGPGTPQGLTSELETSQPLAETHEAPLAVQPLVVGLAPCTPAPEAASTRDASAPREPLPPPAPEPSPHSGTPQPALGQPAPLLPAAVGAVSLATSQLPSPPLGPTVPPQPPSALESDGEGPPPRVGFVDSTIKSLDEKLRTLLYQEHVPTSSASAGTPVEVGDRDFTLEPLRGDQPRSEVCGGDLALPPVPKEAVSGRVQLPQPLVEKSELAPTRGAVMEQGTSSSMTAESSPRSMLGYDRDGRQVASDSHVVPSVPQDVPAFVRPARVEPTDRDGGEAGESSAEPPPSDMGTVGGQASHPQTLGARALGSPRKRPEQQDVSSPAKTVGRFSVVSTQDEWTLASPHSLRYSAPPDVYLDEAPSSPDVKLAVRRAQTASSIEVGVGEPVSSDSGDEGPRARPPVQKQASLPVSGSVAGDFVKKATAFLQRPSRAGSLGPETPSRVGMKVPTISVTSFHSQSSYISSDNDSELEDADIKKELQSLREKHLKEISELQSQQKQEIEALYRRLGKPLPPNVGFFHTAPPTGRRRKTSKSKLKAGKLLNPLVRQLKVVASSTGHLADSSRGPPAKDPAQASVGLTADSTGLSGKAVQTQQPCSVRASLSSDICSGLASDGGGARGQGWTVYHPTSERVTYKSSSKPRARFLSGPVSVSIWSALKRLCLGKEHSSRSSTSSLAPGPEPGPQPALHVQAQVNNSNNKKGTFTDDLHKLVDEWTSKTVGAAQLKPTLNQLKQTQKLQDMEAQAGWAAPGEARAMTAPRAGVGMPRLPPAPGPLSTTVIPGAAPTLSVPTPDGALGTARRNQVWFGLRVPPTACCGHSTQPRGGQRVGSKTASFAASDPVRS

ULK1 = target: T29, ULK1 (Homo sapiens, UniProt O75385); assay: KinomeScan; assay type: binding; conditions: read-out: % control
T29 construct: purchased DiscoveRx KINOMEscan

FLT4 = target: T30, FLT4 (Homo sapiens, UniProt P35916); assay: KinomeScan; assay type: binding; conditions: read-out: % control
T30 construct: purchased DiscoveRx KINOMEscan

PLK1 = target: T31, PLK1 (Homo sapiens, UniProt P53350); assay: KinomeScan; assay type: binding; conditions: read-out: % control
T31 construct: purchased DiscoveRx KINOMEscan

STK33 = target: T32, STK33 (Homo sapiens, UniProt Q9BYT3); assay: KinomeScan; assay type: binding; conditions: read-out: % control
T32 construct: purchased DiscoveRx KINOMEscan

PIK3CA(H1047Y) = target: T33, PIK3CA(H1047Y) (Homo sapiens, UniProt P42336, H1047Y); assay: KinomeScan; assay type: binding; conditions: read-out: % control
T33 construct: purchased DiscoveRx KINOMEscan

[3] = target: T34, RSK2(Kin.Dom.1-N-terminal) (Homo sapiens, UniProt P51812); assay: KinomeScan; assay type: binding; conditions: read-out: % control
T34 construct: RSK2(Kin.Dom.1-N-terminal); purchased DiscoveRx KINOMEscan

PCTK2 = target: T35, PCTK2 (Homo sapiens, UniProt Q00537); assay: KinomeScan; assay type: binding; conditions: read-out: % control
T35 construct: purchased DiscoveRx KINOMEscan

C=CC(=O)N1CCC[C@@H](n2nc(-c3ccc(OCc4cccc(C)n4)c(Cl)c3)c3c(N)ncnc32)C1 [CHMFL-EGFR-26]
remaining binding at 1 µM (S6K1): 100% | remaining binding at 1 µM (MYO3A): 97% | remaining binding at 1 µM (MEK4): 80% | remaining binding at 1 µM (FGFR1): 100% | remaining binding at 1 µM (TLK2): 80% | % control (FLT3(ITD,D835V)): 99% | remaining binding at 1 µM (ERK1): 91% | GI50 (BaF3-FL-EGFR-del19-T790M): < 0.3 nM | EC50 [1]: < 10 nM | remaining binding at 1 µM (SIK2): 93% | remaining binding at 1 µM (CDC2L5): 100% | remaining binding at 1 µM (IRAK1): 100% | remaining binding at 1 µM (MYO3B): 98% | remaining binding at 1 µM (PLK4): 99% | remaining binding at 1 µM (JNK2): 59% | remaining binding at 1 µM (EPHB1): 96% | remaining binding at 1 µM (NLK): 70% | remaining binding at 1 µM (PAK6): 74% | remaining binding at 1 µM (TRPM6): 100% | remaining binding at 1 µM (HIPK4): 100% | remaining binding at 1 µM [2]: 100% | remaining binding at 1 µM (PRKCH): 70% | remaining binding at 1 µM (ALK): 100% | remaining binding at 1 µM (CDK3): 84% | remaining binding at 1 µM (LATS1): 82% | remaining binding at 1 µM (MAP4K2): 100% | remaining binding at 1 µM (DDR1): 85% | remaining binding at 1 µM (EGFR(E746-A750del)): 34% | remaining binding at 1 µM (GAK): 72% | remaining binding at 1 µM (PIM3): 100% | remaining binding at 1 µM (WNK2): 92% | remaining binding at 1 µM (ULK1): 85% | remaining binding at 1 µM (FLT4): 99% | remaining binding at 1 µM (PLK1): 100% | remaining binding at 1 µM (STK33): 100% | remaining binding at 1 µM (PIK3CA(H1047Y)): 100% | remaining binding at 1 µM [3]: 95% | remaining binding at 1 µM (PCTK2): 89%
